We go through one compound from US7579018B2, “Microbiological control in aqueous systems” (Albemarle Corporation, priority 2000, dated 2009).

In the assay the test system is planktonic bacteria. Description: Cooling tower field test with floater dispenser, Example 5: planktonic plate counts. As to conditions: substantially continuous dosing from floater, 0.15 to 0.2 ppm of free halogen as Br2. On the procedure: Another field test was carried out in the cooling tower described in Example 2 above. In this field test the cooling tower water was substantially continuously dosed with DBDMH using a Rainbow Lifeguard swimming pool floater having a capacity of about 3 lbs of granules, with the slots in the wide open position. This floater, charged with DBDMH granules, was placed and secured in the tower basin, a very convenient location for addition of the biocide when needed. The floater delivered a dose of “free halogen” to maintain a dosage level in the range of 0.15 to 0.2 ppm of free halogen as Br2.
The granules of DBDMH used in Examples 2-5 have an average size in the range of about 40 U.S. standard mesh size to about ⅜-inch, and an average crush strength of at least 15 pounds per inch of thickness. The combination of the low water solubility of DBDMH coupled with its use in granular form provided a slow but continuous or substantially continuous automatic dosing of the cooling tower water so that a biocidally effective level of free bromine was maintained in the water during the entire test, with relatively infrequent refilling of the dispenser being required.

As for `CC1(C)C(=O)N(Br)C(=O)N1Br` [DBDMH, 1,3-dibromo-5,5-dimethylhydantoin], the planktonic plate counts result is given as “less than 10^4 CFU/mL”.
